What was measured:
[1] = Ratio of drug concentration at steady state in human at 100 to 300 mg, po QD after 24 hrs to IC50 for human MRP3 overexpressed in Sf9 insect cells; assay type: ADME, organism-based; conditions: in vivo
[2] = molecular target: T1, ATP-binding cassette sub-family C member 4 (Homo sapiens, UniProt O15439); test: Inhibition of human MRP4 overexpressed in Sf9 cell membrane vesicles assessed as uptake of [3H]-estradiol-17beta-D-glucuronide in presence of ATP and GSH measured after 20 mins by membrane vesicle transport assay; assay type: ADME, cell-based
T1 sequence (O15439 whole entry): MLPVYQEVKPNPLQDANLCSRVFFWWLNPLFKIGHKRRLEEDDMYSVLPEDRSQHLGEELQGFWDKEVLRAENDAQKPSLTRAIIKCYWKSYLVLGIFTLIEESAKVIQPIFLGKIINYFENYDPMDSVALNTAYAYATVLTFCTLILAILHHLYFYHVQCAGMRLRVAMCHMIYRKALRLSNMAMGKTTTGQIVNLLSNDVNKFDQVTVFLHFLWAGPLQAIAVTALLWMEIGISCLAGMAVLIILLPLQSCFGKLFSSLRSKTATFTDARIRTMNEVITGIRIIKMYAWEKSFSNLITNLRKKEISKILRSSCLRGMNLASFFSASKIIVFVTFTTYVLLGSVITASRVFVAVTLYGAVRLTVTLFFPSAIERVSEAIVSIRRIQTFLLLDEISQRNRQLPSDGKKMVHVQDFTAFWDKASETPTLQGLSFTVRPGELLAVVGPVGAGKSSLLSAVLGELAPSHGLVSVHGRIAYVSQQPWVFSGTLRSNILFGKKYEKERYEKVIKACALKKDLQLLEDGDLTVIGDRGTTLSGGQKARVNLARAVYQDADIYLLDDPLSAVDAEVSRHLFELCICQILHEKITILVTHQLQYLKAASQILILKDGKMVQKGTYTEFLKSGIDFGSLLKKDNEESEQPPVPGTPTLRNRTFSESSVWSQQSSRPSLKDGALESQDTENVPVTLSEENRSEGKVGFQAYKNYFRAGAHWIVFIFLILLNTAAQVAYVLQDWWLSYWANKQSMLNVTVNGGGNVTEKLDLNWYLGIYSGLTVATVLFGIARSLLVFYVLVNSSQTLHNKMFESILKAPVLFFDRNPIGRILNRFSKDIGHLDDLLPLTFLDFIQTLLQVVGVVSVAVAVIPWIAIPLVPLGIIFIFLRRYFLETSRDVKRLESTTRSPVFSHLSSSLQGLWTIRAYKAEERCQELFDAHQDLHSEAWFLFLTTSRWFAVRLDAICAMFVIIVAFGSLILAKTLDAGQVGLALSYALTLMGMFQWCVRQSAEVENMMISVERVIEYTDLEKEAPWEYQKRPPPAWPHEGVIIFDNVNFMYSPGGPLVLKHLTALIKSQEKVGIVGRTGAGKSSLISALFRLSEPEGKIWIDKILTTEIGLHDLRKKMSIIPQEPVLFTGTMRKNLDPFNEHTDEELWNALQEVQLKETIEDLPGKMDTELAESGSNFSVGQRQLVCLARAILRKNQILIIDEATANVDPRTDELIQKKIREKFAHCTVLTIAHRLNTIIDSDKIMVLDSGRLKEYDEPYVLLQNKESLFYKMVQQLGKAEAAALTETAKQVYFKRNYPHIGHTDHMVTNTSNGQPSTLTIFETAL

[3] = AUC in human at 100 to 300 mg, po QD after 24 hrs; assay type: ADME, organism-based; conditions: in vivo
[4] = Drug concentration at steady state in human at 100 to 300 mg, po QD after 24 hrs; assay type: ADME, organism-based; conditions: in vivo, read-out: Css
[5] = Ratio of drug concentration at steady state in human at 100 to 300 mg, po QD after 24 hrs to IC50 for human MRP2 overexpressed in Sf9 insect cells; assay type: ADME, organism-based; conditions: in vivo
Bile salt export pump = Bile salt export pump (Homo sapiens, UniProt O95342); test: Inhibition of human BSEP overexpressed in Sf9 cell membrane vesicles assessed as uptake of [3H]-taurocholate in presence of ATP measured after 15 to 20 mins by membrane vesicle transport assay; assay type: ADME, cell-based
[6] = molecular target: ATP-binding cassette sub-family C member 3 (Homo sapiens, UniProt O15438); test: Inhibition of human MRP3 overexpressed in Sf9 insect cell membrane vesicles assessed as uptake of [3H]-estradiol-17beta-D-glucuronide in presence of ATP and GSH measured after 10 mins by membrane vesicle transport assay; assay type: ADME, cell-based
[7] = Ratio of drug concentration at steady state in human at 100 to 300 mg, po QD after 24 hrs to IC50 for human BSEP overexpressed in Sf9 insect cells; assay type: ADME, organism-based; conditions: in vivo
[8] = Drug concentration at steady state in human at 800 mg, po TID after 8 hrs; assay type: ADME, organism-based; conditions: in vivo, read-out: Css
[9] = Ratio of drug concentration at steady state in human at 800 mg, po TID after 8 hrs to IC50 for human BSEP overexpressed in Sf9 insect cells; assay type: ADME, organism-based; conditions: in vivo
[10] = AUC in human at 800 mg, po TID after 8 hrs; assay type: ADME, organism-based; parameters: dose 800 mg, time < 8 hr, route oral; conditions: in vivo
[11] = Ratio of drug concentration at steady state in human at 800 mg, po TID after 8 hrs to IC50 for human MRP3 overexpressed in Sf9 insect cells; assay type: ADME, organism-based; conditions: in vivo
[12] = molecular target: ATP-binding cassette sub-family C member 2 (Homo sapiens, UniProt Q92887); test: Inhibition of human MRP2 overexpressed in Sf9 cell membrane vesicles assessed as uptake of [3H]-estradiol-17beta-D-glucuronide in presence of ATP and GSH measured after 20 mins by membrane vesicle transport assay
[13] = Drug concentration at steady state in human at 400 to 1200 mg, po TID after 8 hrs; assay type: ADME, organism-based; conditions: in vivo, read-out: Css
[14] = AUC in human at 400 to 1200 mg, po TID after 8 hrs; assay type: ADME, organism-based; conditions: in vivo
[15] = AUC in human at 300 mg, po QD after 24 hrs; assay type: ADME, organism-based; parameters: time < 24 hr, dose 300 mg, route oral; conditions: in vivo
[16] = Drug concentration at steady state in human at 300 mg, po QD after 24 hrs; assay type: ADME, organism-based; conditions: in vivo, read-out: Css
[17] = Ratio of drug concentration at steady state in human at 300 mg, po QD after 24 hrs to IC50 for human MRP4 overexpressed in Sf9 insect cells; assay type: ADME, organism-based; conditions: in vivo
[18] = Ratio of drug concentration at steady state in human at 300 mg, po QD after 24 hrs to IC50 for human BSEP overexpressed in Sf9 insect cells; assay type: ADME, organism-based; conditions: in vivo
[19] = Drug concentration at steady state in human at 2 to 8 mg, po QD after 24 hrs; assay type: ADME, organism-based; conditions: in vivo, read-out: Css
[20] = AUC in human at 2 to 8 mg, po QD after 24 hrs; assay type: ADME, organism-based; conditions: in vivo
[21] = Ratio of drug concentration at steady state in human at 2 to 8 mg, po QD after 24 hrs to IC50 for human MRP4 overexpressed in Sf9 insect cells; assay type: ADME, organism-based; conditions: in vivo
[22] = Ratio of drug concentration at steady state in human at 2 to 8 mg, po QD after 24 hrs to IC50 for human BSEP overexpressed in Sf9 insect cells; assay type: ADME, organism-based; conditions: in vivo
[23] = Ratio of drug concentration at steady state in human at 150 to 600 mg, iv QD after 24 hrs to IC50 for human MRP2 overexpressed in Sf9 insect cells; assay type: ADME, organism-based; conditions: in vivo
[24] = AUC in human at 150 to 600 mg, iv QD after 24 hrs; assay type: ADME, organism-based; conditions: in vivo
[25] = Drug concentration at steady state in human at 150 to 600 mg, iv QD after 24 hrs; assay type: ADME, organism-based; conditions: in vivo, read-out: Css
[26] = Ratio of drug concentration at steady state in human at 150 to 600 mg, iv QD after 24 hrs to IC50 for human BSEP overexpressed in Sf9 insect cells; assay type: ADME, organism-based; conditions: in vivo
[27] = Ratio of drug concentration at steady state in human at 150 to 600 mg, iv QD after 24 hrs to IC50 for human MRP3 overexpressed in Sf9 insect cells; assay type: ADME, organism-based; conditions: in vivo
[28] = Ratio of drug concentration at steady state in human at 150 to 600 mg, iv QD after 24 hrs to IC50 for human MRP4 overexpressed in Sf9 insect cells; assay type: ADME, organism-based; conditions: in vivo

Sequence of Bile salt export pump (O95342 whole entry): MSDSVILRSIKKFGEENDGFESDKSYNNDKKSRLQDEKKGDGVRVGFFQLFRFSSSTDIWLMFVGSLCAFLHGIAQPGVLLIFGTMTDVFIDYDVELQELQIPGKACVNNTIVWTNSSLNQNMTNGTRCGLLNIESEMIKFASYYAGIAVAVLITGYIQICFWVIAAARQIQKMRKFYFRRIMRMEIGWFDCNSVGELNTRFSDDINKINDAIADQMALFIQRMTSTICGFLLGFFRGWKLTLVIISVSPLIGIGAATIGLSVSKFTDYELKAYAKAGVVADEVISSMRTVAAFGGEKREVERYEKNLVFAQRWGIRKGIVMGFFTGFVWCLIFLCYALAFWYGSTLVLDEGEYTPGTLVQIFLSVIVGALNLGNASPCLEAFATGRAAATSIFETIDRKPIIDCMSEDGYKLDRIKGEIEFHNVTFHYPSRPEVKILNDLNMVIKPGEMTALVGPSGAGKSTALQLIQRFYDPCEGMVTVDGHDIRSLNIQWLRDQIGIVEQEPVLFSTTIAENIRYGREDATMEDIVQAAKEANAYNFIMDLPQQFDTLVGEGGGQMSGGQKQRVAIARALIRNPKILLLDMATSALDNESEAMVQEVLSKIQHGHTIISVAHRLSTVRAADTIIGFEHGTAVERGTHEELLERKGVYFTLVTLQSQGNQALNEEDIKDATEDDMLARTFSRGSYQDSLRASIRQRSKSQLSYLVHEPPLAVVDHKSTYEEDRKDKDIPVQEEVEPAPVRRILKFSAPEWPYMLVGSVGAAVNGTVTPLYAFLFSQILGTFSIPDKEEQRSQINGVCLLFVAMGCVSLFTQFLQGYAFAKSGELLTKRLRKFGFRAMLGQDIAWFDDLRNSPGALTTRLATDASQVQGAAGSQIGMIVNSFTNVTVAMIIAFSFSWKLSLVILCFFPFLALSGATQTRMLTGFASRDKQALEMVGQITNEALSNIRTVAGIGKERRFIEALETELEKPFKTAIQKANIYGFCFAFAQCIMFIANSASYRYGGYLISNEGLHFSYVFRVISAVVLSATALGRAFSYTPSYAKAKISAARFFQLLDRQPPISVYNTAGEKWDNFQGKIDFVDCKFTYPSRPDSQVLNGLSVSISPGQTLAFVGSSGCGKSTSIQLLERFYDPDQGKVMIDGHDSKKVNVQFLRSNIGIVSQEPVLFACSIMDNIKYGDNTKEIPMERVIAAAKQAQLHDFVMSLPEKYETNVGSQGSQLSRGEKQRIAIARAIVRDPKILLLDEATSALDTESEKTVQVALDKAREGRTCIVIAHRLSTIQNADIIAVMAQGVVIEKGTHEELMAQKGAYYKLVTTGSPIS
Sequence of ATP-binding cassette sub-family C member 3 (O15438 whole entry): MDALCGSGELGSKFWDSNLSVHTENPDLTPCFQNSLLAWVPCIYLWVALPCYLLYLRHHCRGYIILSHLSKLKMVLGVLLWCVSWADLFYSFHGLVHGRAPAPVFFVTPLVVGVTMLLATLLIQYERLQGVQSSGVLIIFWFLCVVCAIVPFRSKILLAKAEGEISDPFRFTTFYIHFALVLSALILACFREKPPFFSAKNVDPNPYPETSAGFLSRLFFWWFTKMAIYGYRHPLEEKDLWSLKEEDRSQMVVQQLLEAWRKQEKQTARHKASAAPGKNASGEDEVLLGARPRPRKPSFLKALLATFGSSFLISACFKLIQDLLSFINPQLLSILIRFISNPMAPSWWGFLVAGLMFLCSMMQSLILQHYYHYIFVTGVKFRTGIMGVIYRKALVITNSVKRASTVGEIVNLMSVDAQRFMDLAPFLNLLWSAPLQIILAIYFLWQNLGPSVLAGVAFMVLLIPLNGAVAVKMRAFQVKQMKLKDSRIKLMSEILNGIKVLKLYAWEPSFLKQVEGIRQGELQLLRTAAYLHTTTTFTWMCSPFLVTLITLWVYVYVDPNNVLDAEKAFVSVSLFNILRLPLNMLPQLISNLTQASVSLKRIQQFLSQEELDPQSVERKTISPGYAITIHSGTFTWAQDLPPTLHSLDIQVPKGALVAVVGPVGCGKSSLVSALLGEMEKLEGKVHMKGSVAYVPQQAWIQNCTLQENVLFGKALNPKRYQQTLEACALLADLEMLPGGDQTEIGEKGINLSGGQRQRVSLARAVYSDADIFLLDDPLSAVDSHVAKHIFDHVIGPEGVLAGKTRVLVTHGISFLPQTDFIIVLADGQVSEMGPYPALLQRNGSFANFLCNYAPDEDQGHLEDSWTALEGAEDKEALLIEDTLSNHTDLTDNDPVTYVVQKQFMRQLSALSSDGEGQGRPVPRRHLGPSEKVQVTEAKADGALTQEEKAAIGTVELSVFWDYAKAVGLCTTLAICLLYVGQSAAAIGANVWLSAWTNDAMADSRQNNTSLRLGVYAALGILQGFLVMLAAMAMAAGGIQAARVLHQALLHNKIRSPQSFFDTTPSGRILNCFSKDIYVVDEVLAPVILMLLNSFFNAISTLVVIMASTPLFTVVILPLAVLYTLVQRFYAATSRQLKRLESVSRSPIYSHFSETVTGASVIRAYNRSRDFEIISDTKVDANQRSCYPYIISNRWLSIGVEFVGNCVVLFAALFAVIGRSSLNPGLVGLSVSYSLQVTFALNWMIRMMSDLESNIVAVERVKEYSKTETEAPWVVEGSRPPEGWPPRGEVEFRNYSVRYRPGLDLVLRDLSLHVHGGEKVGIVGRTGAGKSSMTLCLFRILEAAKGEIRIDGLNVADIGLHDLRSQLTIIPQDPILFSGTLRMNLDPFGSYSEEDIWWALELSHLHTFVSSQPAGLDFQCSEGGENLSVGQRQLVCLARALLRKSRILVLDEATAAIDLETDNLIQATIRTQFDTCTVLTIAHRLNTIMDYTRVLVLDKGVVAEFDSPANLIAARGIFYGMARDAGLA
Sequence of ATP-binding cassette sub-family C member 2 (Q92887 whole entry): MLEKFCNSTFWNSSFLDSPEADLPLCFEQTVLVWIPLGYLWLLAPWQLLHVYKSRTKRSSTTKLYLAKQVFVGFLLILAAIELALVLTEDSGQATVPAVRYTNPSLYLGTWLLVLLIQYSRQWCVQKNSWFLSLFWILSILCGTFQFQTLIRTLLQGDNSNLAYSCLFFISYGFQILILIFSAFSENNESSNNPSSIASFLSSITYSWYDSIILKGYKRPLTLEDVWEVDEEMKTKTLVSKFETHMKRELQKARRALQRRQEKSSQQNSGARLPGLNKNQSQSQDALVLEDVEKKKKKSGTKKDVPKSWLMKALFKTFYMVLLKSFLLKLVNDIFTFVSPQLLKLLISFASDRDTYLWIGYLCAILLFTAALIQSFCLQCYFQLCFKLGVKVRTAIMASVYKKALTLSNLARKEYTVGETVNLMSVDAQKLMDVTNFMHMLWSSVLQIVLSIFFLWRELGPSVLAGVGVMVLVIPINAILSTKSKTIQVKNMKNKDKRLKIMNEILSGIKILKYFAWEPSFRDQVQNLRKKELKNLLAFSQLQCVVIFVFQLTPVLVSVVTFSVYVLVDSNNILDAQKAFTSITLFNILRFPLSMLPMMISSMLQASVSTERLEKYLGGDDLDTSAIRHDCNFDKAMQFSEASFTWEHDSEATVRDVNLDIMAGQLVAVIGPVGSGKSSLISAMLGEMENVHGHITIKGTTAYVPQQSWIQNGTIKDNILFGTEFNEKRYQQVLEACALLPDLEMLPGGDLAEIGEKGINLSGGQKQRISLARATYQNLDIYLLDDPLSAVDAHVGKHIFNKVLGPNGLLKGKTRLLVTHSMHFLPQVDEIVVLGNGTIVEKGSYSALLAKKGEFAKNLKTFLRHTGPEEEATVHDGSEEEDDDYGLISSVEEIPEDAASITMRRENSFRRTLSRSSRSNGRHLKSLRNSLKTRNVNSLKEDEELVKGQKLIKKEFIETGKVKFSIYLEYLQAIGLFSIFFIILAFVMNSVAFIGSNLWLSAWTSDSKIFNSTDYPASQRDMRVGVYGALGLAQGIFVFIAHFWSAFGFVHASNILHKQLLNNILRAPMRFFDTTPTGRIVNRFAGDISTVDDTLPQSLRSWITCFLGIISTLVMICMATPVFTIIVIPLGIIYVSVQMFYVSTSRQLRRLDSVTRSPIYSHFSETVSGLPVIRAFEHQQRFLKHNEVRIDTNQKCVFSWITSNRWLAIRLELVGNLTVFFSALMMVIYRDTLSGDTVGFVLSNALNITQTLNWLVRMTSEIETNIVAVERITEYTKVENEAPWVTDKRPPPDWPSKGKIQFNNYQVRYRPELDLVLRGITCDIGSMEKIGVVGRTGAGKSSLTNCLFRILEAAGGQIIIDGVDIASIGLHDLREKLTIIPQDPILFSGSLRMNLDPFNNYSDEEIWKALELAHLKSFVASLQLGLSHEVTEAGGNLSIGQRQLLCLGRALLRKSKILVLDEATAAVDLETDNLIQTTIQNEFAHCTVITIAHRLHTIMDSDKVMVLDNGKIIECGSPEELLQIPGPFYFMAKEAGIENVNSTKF

Compound `Cc1cc2c(cc1CC(=O)c1sccc1S(=O)(=O)Nc1onc(C)c1Cl)OCO2` [SITAXENTAN] has a Ratio [1] of 0.07, an IC50 [2] of 28.4 µM and an AUC at 24 h [3] of 47.9 µM·h. It also gave a concentration at 24 h [4] of 2 µM, a Ratio [5] of 0.044 and an IC50 (Bile salt export pump) of 12.6 µM. The IC50 [6] was 45.4 µM and the Ratio [7] was 0.158.

For `CC(C)(C)NC(=O)[C@@H]1CN(Cc2cccnc2)CCN1C[C@@H](O)C[C@@H](Cc1ccccc1)C(=O)N[C@H]1c2ccccc2C[C@H]1O.O`, the concentration at 8 h [8] was 5.64 µM, the Ratio [9] was 0.266 and the IC50 [2] was > 133 µM. The AUC at 8 h [10] was 45.1 µM·h, the Ratio [11] was 0.068 and the IC50 [12] was > 133 µM. The IC50 [6] was 83 µM.

In the case of `CC(C)(C)NC(=O)[C@@H]1C[C@@H]2CCCC[C@@H]2CN1C[C@@H](O)[C@H](Cc1ccccc1)NC(=O)[C@H](CC(N)=O)NC(=O)c1ccc2ccccc2n1`, the IC50 [2] is reported as 59 µM, the IC50 [12] is reported as > 133 µM and the concentration at 8 h [13] is reported as 1.21 µM. The IC50 [6] was 42 µM and the AUC at 8 h [14] was 9.69 µM·h.

For `O=C(Nc1cccc2c(=O)cc(-c3nnn[nH]3)oc12)c1ccc(OCCCCc2ccccc2)cc1`, the IC50 [2] was 2.7 µM, the AUC at 24 h [15] was 8.71 µM·h and the IC50 [12] was > 133 µM. It also gave a concentration at 24 h [16] of 0.363 µM, a Ratio [17] of 0.134 and a Ratio [18] of 0.122. For the same compound, the IC50 (Bile salt export pump) was 2.97 µM and the IC50 [6] was > 133 µM.

Compound `CN(CCOc1ccc(CC2SC(=O)NC2=O)cc1)c1ccccn1` (centres undefined) [ROSIGLITAZONE] has an IC50 [2] of 21 µM, a concentration at 24 h [19] of 0.334 µM and an AUC at 24 h [20] of 8.02 µM·h. For the same compound, the Ratio [21] was 0.016, the IC50 (Bile salt export pump) was 2.8 µM and the IC50 [6] was > 133 µM. For the same compound, the Ratio [22] was 0.119.

In the case of `CO[C@H]1/C=C/O[C@@]2(C)Oc3c(C)c(O)c4c(O)c(c(/C=N/N5CCN(C)CC5)c(O)c4c3C2=O)NC(=O)/C(C)=C\C=C\[C@H](C)[C@H](O)[C@@H](C)[C@@H](O)[C@@H](C)[C@H](OC(C)=O)[C@@H]1C` [RIFAMPIN], the Ratio [23] is reported as 0.07, the AUC at 24 h [24] is reported as 89.4 µM·h and the IC50 [2] is reported as 41.9 µM. It also gave a concentration at 24 h [25] of 3.73 µM, a Ratio [26] of 0.147 and an IC50 [12] of 53 µM. It also gave a Ratio [27] of 0.054, an IC50 [6] of 69 µM and a Ratio [28] of 0.089.

Source: ChEMBL document CHEMBL4028801, “A multifactorial approach to hepatobiliary transporter assessment enables improved therapeutic compound development” (Toxicol Sci, 2013)
